Results taken from patent US20240360091A1, “GLUN2B-SUBUNIT SELECTIVE ANTAGONISTS OF THE N-METHYL-D-ASPARTATE RECEPTORS WITH ENHANCED POTENCY AT ACIDIC PH” (Emory University, priority 2021, published 2024).
Like-named read-outs stand apart in the source and are kept apart here.

Assays:
5-HT2B = 5-HT2B (Homo sapiens (Human), UniProt P41595); experiment: biochemical
Protocol: Briefly, the compound was submitted to the NIMH PDSP and screened at a single concentration (10 μM) of test article under equilibrium conditions for ability to displace specific radioligands from binding to their targets expressed in mammalian cell membranes in vitro. Each receptor target was assayed in quadruplicate and the % inhibition of radioligand binding at each target determined at pH 7.4. […]

[1] = SAD study NP10679-101, plasma pharmacokinetics; format: in vivo, human
Protocol: Each cohort consisted of 8 subjects.
(±10° C.) until shipment.

[2] = Plasma protein binding, rapid equilibrium dialysis, human; format: in vitro ADME; conditions: n=2
Protocol: Plasma protein binding was performed with a rapid equilibrium dialysis (RED) device containing dialysis membrane with a molecular weight cut-off of 8,000 Daltons according to the manufacturer's instructions (ThermoFisher, USA). The plasma samples (pH 7.4) and the test compound solution (1 or 5 μM) or reference standards (Warfarin and Propranolol, 10 μM) were combined (DMSO final conc 0.1%). 300 μL of this spiked plasma sample was added to the sample chamber, and 500 μL of blank PBS buffer (pH 7.4) was added into the buffer chamber. The RED device was sealed with adhesive film and then incubated at 37° C. with shaking at 300 rpm for 4 h. Following incubation, an aliquot (50 μL) was removed from each well (spiked plasma and buffer side) and diluted with equal volume of the corresponding opposite matrix (blank buffer or blank plasma) to nullify the matrix effect, and then extracted for analysis by LC-MS/MS. The amount of free material was determined by:
% Free=(LC-MS/MS peak area of test compound in buffer side/LC-MS/MS peak area of test compound in plasma side)×100%

5-HT2A = 5-HT2A (Homo sapiens (Human), UniProt P28223); experiment: Functional agonism/antagonism, IP1 HTRF in HEK293 cells; format: cell-based
Sequence of 5-HT2A (P28223 whole entry): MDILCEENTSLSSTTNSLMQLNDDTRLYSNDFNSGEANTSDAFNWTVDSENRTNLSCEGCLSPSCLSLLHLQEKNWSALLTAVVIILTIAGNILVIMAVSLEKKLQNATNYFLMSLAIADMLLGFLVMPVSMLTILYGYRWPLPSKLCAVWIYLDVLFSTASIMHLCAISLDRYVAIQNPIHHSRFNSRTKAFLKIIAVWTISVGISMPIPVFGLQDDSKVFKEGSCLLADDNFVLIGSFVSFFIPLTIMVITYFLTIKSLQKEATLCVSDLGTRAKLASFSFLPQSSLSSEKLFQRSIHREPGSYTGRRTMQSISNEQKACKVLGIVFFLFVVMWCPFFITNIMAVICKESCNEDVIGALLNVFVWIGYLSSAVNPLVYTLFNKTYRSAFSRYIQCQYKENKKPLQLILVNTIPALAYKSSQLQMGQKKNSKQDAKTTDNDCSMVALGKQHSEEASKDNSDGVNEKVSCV
Protocol: These receptor targets include the 5-HT2A receptor, the functional study of which was performed at pH 7.4 (Porter, et al., Br J Pharmacol, 1999, 128:13-20; CEREP, France). […] Separate wells stimulated with 10 μM serotonin served as a positive control. […] The cells were stimulated with 100 nM serotonin.

[3] = human, plasma, Cohort 1, 5 mg single IV
[4] = human, plasma, Cohort 2, 15 mg single IV
[5] = human, plasma, Cohort 3, 50 mg single IV
[6] = human, plasma, Cohort 4, 100 mg single IV
[7] = human, plasma, Cohort 5, 150 mg single IV
[8] = human, plasma, Cohort 6, 200 mg single IV

Sequence of 5-HT2B (P41595 whole entry, species assumed): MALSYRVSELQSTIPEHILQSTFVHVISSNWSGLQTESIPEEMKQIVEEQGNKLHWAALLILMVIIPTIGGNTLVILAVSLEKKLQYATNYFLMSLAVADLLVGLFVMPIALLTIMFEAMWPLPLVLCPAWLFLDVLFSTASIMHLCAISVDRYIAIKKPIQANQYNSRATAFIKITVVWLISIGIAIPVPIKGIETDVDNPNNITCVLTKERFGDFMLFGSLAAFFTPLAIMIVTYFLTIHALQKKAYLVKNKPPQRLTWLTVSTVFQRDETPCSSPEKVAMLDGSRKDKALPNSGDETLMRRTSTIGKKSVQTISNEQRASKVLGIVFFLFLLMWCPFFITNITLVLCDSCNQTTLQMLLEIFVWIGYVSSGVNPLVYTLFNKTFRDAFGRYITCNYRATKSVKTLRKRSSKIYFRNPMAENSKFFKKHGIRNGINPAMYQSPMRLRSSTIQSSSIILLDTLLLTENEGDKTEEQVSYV

- Ki (5-HT2B): 1.92 µM
- AUMC(0-T) (ng*h^2/mL) ([1]; Cohort 1, 5 mg single IV): 5794 ng*h^2/mL
- AUMC(0-inf) (ng*h^2/mL) ([1]; Cohort 1, 5 mg single IV): 35856 ng*h^2/mL
- CL ([1]; Cohort 1, 5 mg single IV): 9.82 L/h
- Cmax ([1]; Cohort 1, 5 mg single IV): 26.96 ng/mL
- T1/2* ([1]; Cohort 1, 5 mg single IV, harmonic mean): 27.6 h
- AUMC(0-T) (ng*h^2/mL) ([1]; Cohort 2, 15 mg single IV): 18219 ng*h^2/mL
- AUMC(0-inf) (ng*h^2/mL) ([1]; Cohort 2, 15 mg single IV): 34553 ng*h^2/mL
- AUMC(0-T) (ng*h^2/mL) ([1]; Cohort 3, 50 mg single IV): 61442 ng*h^2/mL
- AUMC(0-inf) (ng*h^2/mL) ([1]; Cohort 3, 50 mg single IV): 114675 ng*h^2/mL
- AUMC(0-T) (ng*h^2/mL) ([1]; Cohort 4, 100 mg single IV): 201642 ng*h^2/mL
- AUMC(0-inf) (ng*h^2/mL) ([1]; Cohort 4, 100 mg single IV): 253651 ng*h^2/mL
- AUMC(0-T) (ng*h^2/mL) ([1]; Cohort 5, 150 mg single IV): 286984 ng*h^2/mL
- AUMC(0-inf) (ng*h^2/mL) ([1]; Cohort 5, 150 mg single IV): 323299 ng*h^2/mL
- AUMC(0-T) (ng*h^2/mL) ([1]; Cohort 6, 200 mg single IV): 407581 ng*h^2/mL
- AUMC(0-inf) (ng*h^2/mL) ([1]; Cohort 6, 200 mg single IV): 459611 ng*h^2/mL
- CL ([1]; Cohort 6, 200 mg single IV): 10.39 L/h
- T1/2* ([1]; Cohort 6, 200 mg single IV, harmonic mean): 17.4 h
- clearance as percent of the hepatic blood flow ([1]; human hepatic blood flow 87 L/h): less than 12%
- half-life ([1]; human, plasma, intravenous, SAD and MAD studies, read-out: half-life (converted)): ~20 h
- clearance ([1]; human, plasma, iv, 5 mg, Cohort 1, 5 mg single IV): 164 mL/min
- Cmax ([1]; human, plasma, iv, 5 mg, Cohort 1, 5 mg single IV, read-out: Cmax): 30 ± 14.8 ng/mL
- clearance ([1]; human, plasma, iv, 15 mg, Cohort 2, 15 mg single IV): 200 mL/min
- Cmax ([1]; human, plasma, iv, 15 mg, Cohort 2, 15 mg single IV, read-out: Cmax): 99.2 ng/mL
- clearance ([1]; human, plasma, iv, 50 mg, Cohort 3, 50 mg single IV): 183 mL/min
- Cmax ([1]; human, plasma, iv, 50 mg, Cohort 3, 50 mg single IV, read-out: Cmax): 415 ng/mL
- clearance ([1]; human, plasma, iv, 100 mg, Cohort 4, 100 mg single IV): 183 mL/min
- Cmax ([1]; human, plasma, iv, 100 mg, Cohort 4, 100 mg single IV, read-out: Cmax): 746 ng/mL
- clearance ([1]; human, plasma, iv, 150 mg, Cohort 5, 150 mg single IV): 182 mL/min
- Cmax ([1]; human, plasma, iv, 150 mg, Cohort 5, 150 mg single IV, read-out: Cmax): 954 ng/mL
- clearance ([1]; human, plasma, iv, 200 mg, Cohort 6, 200 mg single IV): 173 mL/min
- Cmax ([1]; human, plasma, iv, 200 mg, Cohort 6, 200 mg single IV, read-out: Cmax): 2070 ± 798 ng/mL
- AUC(0-inf) [1, 3]: 533 ng·h/mL
- AUC(0-t) [1, 3]: 335 ng·h/mL
- MRT [1, 3]: 52.9 h
- half-life ([1]; human, plasma, Cohort 1, 5 mg single IV, harmonic mean, read-out: T1/2* (converted)): 27.6 ± 12 h
- Vd ([1]; human, plasma, Cohort 1, 5 mg single IV, read-out: Vss): 435 L
- AUC(0-inf) [1, 4]: 1280 ng·h/mL
- AUC(0-t) [1, 4]: 1140 ng·h/mL
- MRT [1, 4]: 26.1 h
- half-life ([1]; human, plasma, Cohort 2, 15 mg single IV, harmonic mean, read-out: T1/2* (converted)): 20.4 h
- Vd ([1]; human, plasma, Cohort 2, 15 mg single IV, read-out: Vss): 306 L
- AUC(0-inf) [1, 5]: 4680 ng·h/mL
- AUC(0-t) [1, 5]: 3980 ng·h/mL
- MRT [1, 5]: 23.8 h
- half-life ([1]; human, plasma, Cohort 3, 50 mg single IV, harmonic mean, read-out: T1/2* (converted)): 17.8 h
- Vd ([1]; human, plasma, Cohort 3, 50 mg single IV, read-out: Vss): 255 L
- AUC(0-inf) [1, 6]: 9860 ng·h/mL
- AUC(0-t) [1, 6]: 9370 ng·h/mL
- MRT [1, 6]: 24.5 h
- half-life ([1]; human, plasma, Cohort 4, 100 mg single IV, harmonic mean, read-out: T1/2* (converted)): 19.8 h
- Vd ([1]; human, plasma, Cohort 4, 100 mg single IV, read-out: Vss): 259 L
- AUC(0-inf) [1, 7]: 13800 ng·h/mL
- AUC(0-t) [1, 7]: 13600 ng·h/mL
- MRT [1, 7]: 23 h
- half-life ([1]; human, plasma, Cohort 5, 150 mg single IV, harmonic mean, read-out: T1/2* (converted)): 17.9 h
- Vd ([1]; human, plasma, Cohort 5, 150 mg single IV, read-out: Vss): 250 L
- AUC(0-inf) [1, 8]: 20200 ng·h/mL
- AUC(0-t) [1, 8]: 19700 ng·h/mL
- MRT [1, 8]: 21.9 h
- half-life ([1]; human, plasma, Cohort 6, 200 mg single IV, harmonic mean, read-out: T1/2* (converted)): 17.4 ± 2.8 h
- Vd ([1]; human, plasma, Cohort 6, 200 mg single IV, read-out: Vss): 221 L
- Vd ([1]; human, plasma, single IV 5 to 200 mg, read-out: volume of distribution): > 221 L
- volume of distribution as times of the total body water space ([1]; in vivo): 4.5 times
- bound to human plasma proteins [2]: 97.7%
- functional agonism or antagonism at 5-HT2A (5-HT2A; pH 7.4): behaved as an antagonist
- IC50 (5-HT2A; pH 7.4, antagonism vs 100 nM serotonin): 1.71 µM
SMILES: O=C1CCc2cc(OC[C@H](O)CN3CCN(c4ccc(C(F)(F)F)cc4)CC3)ccc2N1 [NP10679]
